In patent US20150018396A1, “PREVENTION AND TREATMENT OF RESPIRATORY INFECTION WITH PEROXISOME PROLIFERATOR ACTIVATOR RECEPTOR DELTA AGONIST” (PRESIDENT AND FELLOWS OF HARVARD COLLEGE, priority 2012, published 2015):
Entries after “also recorded” stand apart in the source; their conditions may differ.

Tests used:
Noxo1 promoter [1] = test: Noxo1 promoter luciferase reporter in RAW macrophages; assay type: cell-based; details: RAW267.4 macrophages, luciferase reporter driven by 2 kb 5′-regulatory region, treated 12 hours
Description: (§1) FIGS. 3a-3c show the transcriptional regulation of macrophage phagosomal function by Ppar-δ. FIGS. 3a and 3b show the expression of genes involved in NADPH oxidase complexes in cultured macrophages and alveolar macrophages, respectively. Gene expression was determined by real-time PCR. […] RAW264.7 macrophages were transfected with a luciferase reporter driven by the 2 kb 5′-regulatory region of the Noxo1 or Nox2 gene. […] Transfection was done in stably transformed wt and Ppar-δ^−/− macrophage cell lines. Data are presented as mean±SEM. *p<0.05.
(§2) To elucidate downstream targets of Ppar-δ mediating phagosomal ROS production, expression of genes involved in this process was analyzed in stably transformed wt and Ppar-δ^−/− macrophages and in alveolar lavage cells from wt and Ppar-δ^mye−/− mice after S. pneumoniae infection. […] To determine whether members of the NADPH complex are transcriptional targets of Ppar-δ, we generated luciferase reporter constructs driven by 2 kb upstream promoters of Noxo1 and Nox2. […] Indeed, we found the expression of Ppar-δ and its known target Slc25a20 increased after bacteria infection (FIG. 7a).

S. pneumoniae = test: Survival in a mouse model of pneumonia (intranasal S. pneumoniae infection); assay type: in vivo; details: wt C57BL/6 mice, 2 mg kg^−1 per day by gavage, 5×10^5 CFU S. pneumoniae
Description: (§3) Mice were infected with 5×10^5 CFU of S. pneumoniae. […] Twenty-four hours post-infection, lavage fluid was isolated and analyzed for bacterial counts. […] Mice were gavaged with GW501516 for three days. […] Alveolar macrophages were isolated and ROS was determined using FcOxyburst. Data are presented as mean±SEM. *p<0.05.
We next sought to explore the therapeutic potential of the Ppar-δ controlled phagosomal function in pathologies associated with infection. For this purpose, wt mice were infected with a higher dose of S. pneumoniae through nasal inhalation, which led to lethality in 75% of mice within 5 days post-injection (FIG. 5a). […] Taken together, our data implicate the potential use of synthetic Ppar-δ agonists to improve the outcomes of bacteria infection, such as pneumonia.
Ppar-δ floxed animals were generated as described previously^33,34. Ppar-δ mice were crossed to lysozyme cre mice (Jackson laboratory) to generate Ppar-δ^mye−/− mice. Ppar-δ^fl/fl mice were used as wt controls. All mice were maintained on a C57BL/6 background. Mice used for survival studies in FIG. 5 were C57BL/6 mice purchased from Jackson Laboratory. Bone marrow from CSS-17 mice was provided by Dr. Colleen Croniger (Case Western Reserve University). For in vivo killing assays, mice were anesthetized with a ketamine/xylazine solution and infected intranasally with 10^6 CFU S. pneumoniae. […]

Noxo1 promoter [2] = test: Noxo1 promoter luciferase reporter in stably transformed wt and Ppar-δ−/− macrophage cell lines; assay type: cell-based, mouse; details: Ppar-δ−/− macrophage cell lines vs wt
Description: as §1, §2
Bone marrow-derived macrophages were differentiated in L929 conditioned media as previously described^14. Stables lines were created from bone marrow of Ppar-δ^mye−/− and control mouse lines using a CreJ2 viral system^35,36. […]

Ppar-δ = test: Gene expression analyses of Balf cells by real-time PCR; assay type: in vivo, mouse; details: mice gavaged for three days
Description: as §3
For gene expression analyses, we determined relative expression levels using SYBR Green-based real-time qPCR reactions. We used 36B4 expression levels for normalization. For in vitro analyses of infected macrophages, S. pneumoniae conjugated to magnetic beads were used during infection (see Bacterial Growth and Manipulation for details). Cells were infected for 1 hr with conjugated beads. At the end of the experiment, a magnet was used to separate cells that contained intracellular magnetic bacteria. These cells were used for expression analyses.

alveolar macrophages = test: Fc-stimulated phagosomal ROS production ex vivo in isolated alveolar macrophages (FcOxyburst); set-up: species or system mouse; details: wt and Ppar-δ mye−/− mice gavaged for 3 days
Description: as §3
We next sought to explore the therapeutic potential of the Ppar-δ controlled phagosomal function in pathologies associated with infection. For this purpose, wt mice were infected with a higher dose of S. pneumoniae through nasal inhalation, which led to lethality in 75% of mice within 5 days post-injection (FIG. 5a). […]
Bacterial killing assays were used for in vitro bacterial killing^37,38. […] Colony forming units (CFU) were determined as a measure of bacterial survival. ROS assays were done using FcOxyburst (Invitrogen) according to manufacturers protocols and analyzed by fluorescence activated cell sorting (FACS). Phagocytosis and phagosome number were determined by FACS using Alexa Fluor 647 labeled heat killed S. pneumoniae^32. pH was determined as previously described^32. […] Macrophages were incubated with labeled bacteria and analyzed by FACS for FITC relative to Alexa Fluor 647 signal. ATP and lactate were measured using commercially available kits. […]

Structure (SMILES): Cc1cc(SCc2sc(-c3ccc(C(F)(F)F)cc3)nc2C)ccc1OCC(=O)O [GW501516]
- promoter activity of Noxo1 (Noxo1 promoter [1]): increased; also recorded: able to increase activity of the promoter of Noxo1
- onset of death (S. pneumoniae): delayed onset of death
- survival compared to vehicle-treated mice (S. pneumoniae; 3 days prior to and every other day after infection): significant improvement in survival
- ability to induce Noxo1 promoter activity in cells lacking Ppar-δ (Noxo1 promoter [2]): lost
- expression of Ppar-δ in Balf cells (Ppar-δ): increase
- expression of Ppar-δ target gene Slc25a20 in Balf cells (Ppar-δ): increase
- level of Noxa1 mRNA in Balf cells (Ppar-δ): increased
- level of Noxo1 mRNA in Balf cells (Ppar-δ): increased
- phagosome ROS production in alveolar macrophages (alveolar macrophages): increased ROS production in a Ppar-δ dependent manner; also recorded: increases phagosome ROS production
